Measured values from patent publication US20130164384A1, “METHODS OF TREATING BOWEL DISEASES BY ADMINISTERING A BOWEL CLEANSER AND AN ANTIBIOTIC” (Salix Pharmaceuticals, Ltd., priority 2008, published 2013).

Tested on: subjects with dIBS
Test: Study of three rifaximin doses in subjects with dIBS: adequate relief of IBS symptoms and bloating
Format: in vivo, human
Settings: for Treatment effect (Bloating) / Treatment effect (IBS Sx): matches RFX 550 2 w minus PBO success rate; for Adequate Relief of Bloating: Failure / Adequate Relief of Bloating: Success / Adequate Relief of IBS Symptoms: Failure / Adequate Relief of IBS Symptoms: Success: end of treatment phase
Method: This example relates to a study of three rifaximin doses in subjects with dIBS. Subjects were randomized to receive daily BID doses of rifaximin 275 mg, 550 mg, or 1100 mg for 14 days. A fifth group of subjects received rifaximin 550 mg BID for a period of 28 days. Subjects were questioned on the relief of overall IBS symptoms and bloating. […] The analyses defined success as a “yes” response to questions regarding adequate relief of SGA or IBS-B in at least 2 out of the final 3 weeks of the double-blind treatment period.
Baseline severity was determined using 7-point Lickert scales during screening for Abdominal Pain/Discomfort and Bloating, and the number, type (normal, hard, loose) and urgency of bowel movements.
Duration of effect was assessed in a 12 week follow-up period. Subjects that responded in the 4 week double-blind treatment period were followed for an additional 3 months. Fifty-three (53) subjects from the 550 mg 2 w and 59 subjects from the placebo-treated groups participated in this study phase.
Subjects recorded the following information on dIBS symptoms daily throughout the duration of the study: • Number of normal stools/day; • Number of hard and lumpy stools/day; • Number of loose or watery stools/day; • Number of loose or watery stools/day with the symptom of urgency; • How bothersome is abdominal pain and discomfort? [7-point response scale: 0 (not at all) to 6 (a very great deal)]; • How bothersome is bloating? [(7-point response scale: 0 (not at all) to 6 (a very great deal)].
Weekly summary variables were computed by averaging the recorded values over all pre-treatment days or over the seven days preceding the time point of interest for post-treatment assessments. For example, baseline included Days −10 to 0, Week 1 included Days 1 to 7, Week 2 included Days 8 to 14, and so forth through Week 16. Changes from baseline variables were computed for each weekly summary score.

[1] = 550 mg BID for 2 weeks, success = yes in at least 2 of final 3 weeks
[2] = GI Cleanser Prior to Rifaximin Administration: N
[3] = GI Cleanser Prior to Rifaximin Administration: Y
[4] = RFX 275 2 w (275 mg BID 14 days), Had a Screening Colonoscopy: No
[5] = RFX 275 2 w (275 mg BID 14 days), Had a Screening Colonoscopy: Yes
[6] = RFX 275 2 w (275 mg BID 14 days), Screening Colonoscopy <=26 Days
[7] = RFX 275 2 w (275 mg BID 14 days), Screening Colonoscopy >26 Days
[8] = RFX 275 2 w (275 mg BID 14 days), had screening colonoscopy, Average Abdominal Pain Discomfort Score at Baseline <=4
[9] = RFX 275 2 w (275 mg BID 14 days), had screening colonoscopy, Average Abdominal Pain Discomfort Score at Baseline >4
[10] = RFX 275 2 w (275 mg BID 14 days), had screening colonoscopy, Average Bloating Discomfort Score at Baseline <=4
[11] = RFX 275 2 w (275 mg BID 14 days), had screening colonoscopy, Average Bloating Discomfort Score at Baseline >4
[12] = RFX 550 2 w (550 mg BID 14 days), Had a Screening Colonoscopy: No
[13] = RFX 550 2 w (550 mg BID 14 days), Had a Screening Colonoscopy: Yes
[14] = RFX 550 2 w (550 mg BID 14 days), Screening Colonoscopy <=26 Days
[15] = RFX 550 2 w (550 mg BID 14 days), Screening Colonoscopy >26 Days
[16] = RFX 550 2 w (550 mg BID 14 days), had screening colonoscopy, Average Abdominal Pain Discomfort Score at Baseline <=4
[17] = RFX 550 2 w (550 mg BID 14 days), had screening colonoscopy, Average Abdominal Pain Discomfort Score at Baseline >4
[18] = RFX 550 2 w (550 mg BID 14 days), had screening colonoscopy, Average Bloating Discomfort Score at Baseline <=4

## COC1/C=C/OC2(C)Oc3c(C)c(O)c4c(O)c(c5c(nc6cc(C)ccn65)c4c3C2=O)NC(=O)/C(C)=C\C=C\C(C)C(O)C(C)C(O)C(C)C(OC(C)=O)C1C [RFX, (2S,16Z,18E,20S,21S,22R,23R,24R,25S,26S,27S,28E)-5,6,21,23,25 Pentahydroxy-27-methoxy-2,4,11,16,20,22,24,26-octamethyl-2,7-(epoxypentadeca-(1,11,13)trienimino)benzofuro(4,5-e)pyrido(1,2,-a)benzimidazole-1,15(2H)-dione,25-acetate]
550 mg BID 2 w responders, 12 week follow-up period
  Duration of effect (maintaining symptom relief) versus placebo: better chance of maintaining symptom relief
[1]
  Adequate relief of IBS related symptoms (SGA) compared to placebo: statistically significant relief
  Adequate relief of IBS-related bloating (IBS-B) compared to placebo: statistically significant relief
[2]
  Treatment effect (Bloating): −0.9%
  Treatment effect (IBS Sx): 4.7%
[3]
  Treatment effect (Bloating): 13.8%
  Treatment effect (IBS Sx): 11.6%
[4]
  Adequate Relief of Bloating: Failure: 36 (67.9%) n (%)
  Adequate Relief of Bloating: Success: 17 (32.1%) n (%)
  Adequate Relief of IBS Symptoms: Failure: 32 (60.4%) n (%)
  Adequate Relief of IBS Symptoms: Success: 21 (39.6%) n (%)
[5]
  Adequate Relief of Bloating: Failure: 24 (57.1%) n (%)
  Adequate Relief of Bloating: Success: 18 (42.9%) n (%)
  Adequate Relief of IBS Symptoms: Failure: 23 (54.8%) n (%)
  Adequate Relief of IBS Symptoms: Success: 19 (45.2%) n (%)
[6]
  Adequate Relief of Bloating: Failure: 10 (55.6%) n (%)
  Adequate Relief of Bloating: Success: 8 (44.4%) n (%)
  Adequate Relief of IBS Symptoms: Failure: 11 (61.1%) n (%)
  Adequate Relief of IBS Symptoms: Success: 7 (38.9%) n (%)
[7]
  Adequate Relief of Bloating: Failure: 14 (58.3%) n (%)
  Adequate Relief of Bloating: Success: 10 (41.7%) n (%)
  Adequate Relief of IBS Symptoms: Failure: 12 (50.0%) n (%)
  Adequate Relief of IBS Symptoms: Success: 12 (50.0%) n (%)
[8]
  Adequate Relief of Bloating: Failure: 22 (59.5%) n (%)
  Adequate Relief of Bloating: Success: 15 (40.5%) n (%)
  Adequate Relief of IBS Symptoms: Failure: 21 (56.8%) n (%)
  Adequate Relief of IBS Symptoms: Success: 16 (43.2%) n (%)
[9]
  Adequate Relief of Bloating: Failure: 2 (40.0%) n (%)
  Adequate Relief of Bloating: Success: 3 (60.0%) n (%)
  Adequate Relief of IBS Symptoms: Failure: 2 (40.0%) n (%)
  Adequate Relief of IBS Symptoms: Success: 3 (60.0%) n (%)
[10]
  Adequate Relief of Bloating: Failure: 22 (59.5%) n (%)
  Adequate Relief of Bloating: Success: 15 (40.5%) n (%)
  Adequate Relief of IBS Symptoms: Failure: 21 (56.8%) n (%)
  Adequate Relief of IBS Symptoms: Success: 16 (43.2%) n (%)
[11]
  Adequate Relief of Bloating: Failure: 2 (40.0%) n (%)
  Adequate Relief of Bloating: Success: 3 (60.0%) n (%)
  Adequate Relief of IBS Symptoms: Failure: 2 (40.0%) n (%)
  Adequate Relief of IBS Symptoms: Success: 3 (60.0%) n (%)
[12]
  Adequate Relief of Bloating: Failure: 59 (62.1%) n (%)
  Adequate Relief of Bloating: Success: 36 (37.9%) n (%)
  Adequate Relief of IBS Symptoms: Failure: 49 (51.6%) n (%)
  Adequate Relief of IBS Symptoms: Success: 46 (48.4%) n (%)
[13]
  Adequate Relief of Bloating: Failure: 44 (45.8%) n (%)
  Adequate Relief of Bloating: Success: 52 (54.2%) n (%)
  Adequate Relief of IBS Symptoms: Failure: 42 (43.8%) n (%)
  Adequate Relief of IBS Symptoms: Success: 54 (56.3%) n (%)
[14]
  Adequate Relief of Bloating: Failure: 18 (40.9%) n (%)
  Adequate Relief of Bloating: Success: 26 (59.1%) n (%)
  Adequate Relief of IBS Symptoms: Failure: 20 (45.5%) n (%)
  Adequate Relief of IBS Symptoms: Success: 24 (54.5%) n (%)
[15]
  Adequate Relief of Bloating: Failure: 26 (50.0%) n (%)
  Adequate Relief of Bloating: Success: 26 (50.0%) n (%)
  Adequate Relief of IBS Symptoms: Failure: 22 (42.3%) n (%)
  Adequate Relief of IBS Symptoms: Success: 30 (57.7%) n (%)
[16]
  Adequate Relief of Bloating: Failure: 38 (45.8%) n (%)
  Adequate Relief of Bloating: Success: 45 (54.2%) n (%)
  Adequate Relief of IBS Symptoms: Failure: 37 (44.6%) n (%)
  Adequate Relief of IBS Symptoms: Success: 46 (55.4%) n (%)
[17]
  Adequate Relief of Bloating: Failure: 6 (46.2%) n (%)
  Adequate Relief of Bloating: Success: 7 (53.8%) n (%)
  Adequate Relief of IBS Symptoms: Failure: 5 (38.5%) n (%)
  Adequate Relief of IBS Symptoms: Success: 8 (61.5%) n (%)
[18]
  Adequate Relief of Bloating: Failure: 36 (45.0%) n (%)
  Adequate Relief of Bloating: Success: 44 (55.0%) n (%)
  Adequate Relief of IBS Symptoms: Failure: 34 (42.5%) n (%)
  Adequate Relief of IBS Symptoms: Success: 46 (57.5%) n (%)
RFX 550 2 w (550 mg BID 14 days), had screening colonoscopy, Average Bloating Discomfort Score at Baseline >4
  Adequate Relief of Bloating: Failure: 8 (50.0%) n (%)
